# Where two headings read alike, the source gives them in different places.
# Tests used:
# [1] = system: Clostridium perfringens (Cp); type: cell-based; details: Anaerobic, 6 h, 37° C.
# Salmonella typhimurium = type: cell-based
# [2] = system: antibiotic resistant E. coli (E.C. 324); type: cell-based; details: Gram Neg., 6 h, 37° C., aerobic
# [3] = system: Streptococcus sp. 1 X C15 (Strep C15); type: cell-based
# [4] = system: E. coli strain 046 (E.C. 046); type: cell-based
# [5] = system: Bacteroides fragilis (Bf); assay: Antimicrobial growth inhibition, Bf; type: cell-based; details: Anaerobic, 6 h, 37° C.
# [6] = system: Streptococcus sp. 1 X A7 (Strep A7); type: cell-based
# [7] = Growth promotion and feed utilization in chicks; type: in vivo, chicks (broiler cockerels); details: 8 weeks
# [8] = system: Eimeria tenella Eli Lilly Strain 65 (Lilly 65); assay: In vitro anticoccidial test in chick kidney cell monolayers; type: cell-based; details: 72 h, 3 days, read-out: % Inhibition of Coccidia
# [9] = experiment set 4, 50 ppm in feed
# [10] = experiment set 3, 50 ppm in feed
# [11] = experiment set 1, 75 ppm in feed
Compound,Growth of Cp in the presence of the test compound ([1]; 6.4 ppm),Growth of Cp in the presence of the test compound ([1]; 64 ppm),Growth of S.T. in the presence of the test compound (Salmonella typhimurium; 6.4 ppm),Growth of S.T. in the presence of the test compound (Salmonella typhimurium; 64 ppm),Growth of E.C. 324 in the presence of the test compound ([2]; 6.4 ppm),Growth of E.C. 324 in the presence of the test compound ([2]; 64 ppm),Growth of Strep C15 in the presence of the test compound ([3]; 6.4 ppm),Growth of Strep C15 in the presence of the test compound ([3]; 64 ppm),Growth of E.C. 046 in the presence of the test compound ([4]; 6.4 ppm),Growth of E.C. 046 in the presence of the test compound ([4]; 64 ppm),Growth of Bf in the presence of the test compound ([5]; 6.4 ppm),Growth of Bf in the presence of the test compound ([5]; 64 ppm),Growth of Strep A7 in the presence of the test compound ([6]; 6.4 ppm),Growth of Strep A7 in the presence of the test compound ([6]; 64 ppm),also measured
CC[C@H]1OC(=O)[C@H](C)[C@@H](O[C@H]2C[C@@](C)(OC)[C@@H](O)[C@H](C)O2)[C@H](C)[C@@H](O[C@@H]2O[C@H](C)C[C@H](N(C)C)[C@H]2O)[C@](C)(O)C[C@@H](C)C(=O)[C@H](C)[C@@H](O)[C@]1(C)O [Erythromycin],+,+,+,-,+,+,-,-,+,-,+,-,-,-,
Polymyxin,+,+,-,-,-,-,-,-,-,-,+,-,+,-,"feed efficiency (% better or worse than control) [7, 9]: 6%; weight gain (% better or worse than control) [7, 9]: -3%"
Gentamicin,+,+,-,-,+,-,-,-,+,-,-,-,-,-,"feed efficiency (% better or worse than control) [7, 10]: 15%; weight gain (% better or worse than control) [7, 10]: 32%"
CCC[C@@H]1C[C@@H](C(=O)N[C@@H]([C@H]2O[C@H](SC)[C@H](O)[C@@H](O)[C@H]2O)[C@@H](C)O)N(C)C1 [Lincomycin],+,+,+,+,+,+,-,-,+,+,-,-,-,-,"feed efficiency (% better or worse than control) [7, 11]: 12%; weight gain (% better or worse than control) [7, 11]: 20%"
"Clc1ccc(C2=Nc3cc(Cl)c(Cl)cc3NC2c2ccc(Cl)cc2Cl)c(Cl)c1 (stereo not drawn) [Example 3, 2,3-di(2,4-dichlorophenyl)-6,7-dichloro-1,2-dihydroquinoxaline]",,,,,,,,,,,,,,,inhibition at 0.1 ppm ([8]; 0.1 ppm): 88.6%; inhibition at 10 ppm ([8]; 10.0 ppm): 98%
CC[C@H]1OC(=O)C[C@@H](O)[C@H](C)[C@@H](O[C@@H]2O[C@H](C)[C@@H](O[C@H]3C[C@@](C)(O)[C@@H](O)[C@H](C)O3)[C@H](N(C)C)[C@H]2O)[C@@H](CC=O)C[C@@H](C)C(=O)/C=C/C(C)=C/[C@@H]1CO[C@@H]1O[C@H](C)[C@@H](O)[C@@H](OC)[C@H]1OC [Tylosin],+,-,+,+,+,+,-,-,+,+,-,-,-,-,
